# Like-named read-outs stand apart in the source and are kept apart here.
# Key:
# [1] = cited from earlier work
# in vivo [2] = details: rat
# Method: Quantification was performed using the selective MRM mode on a short LC column using a fast gradient.
# Blood samples were collected at time 0, 30 min and 1, 3, 6, 24, 30 and 48 hrs. All plasma samples were collected after centrifugation and frozen at −80° C. Plasma was transferred on dry ice to the Platform of Biopharmacy and was kept at −80° C. until extraction and LC/MS/MS analysis (Table 1).
# The plasma tubes were thawed on ice. Plasma samples were vortex mixed and 20 μL were pipetted into Eppendorf tubes. Proteins were precipitated by the addition of 40 μL acetonitrile. The tubes were vortex mixed and centrifuged for 4.5 min at 13,000 rpm. 20 μL of supernatant was transferred into a HPLC 96-well plate, and mixed with two volumes of water containing 5 mM ammonium acetate. The calibration curve was prepared in blank SD rat plasma, by serial dilution from 10 μM to […] Standard plasma samples were treated as described above.
# Chromatography was performed on a Phenomenex Luna C8(2) 30×2 mm (5 μm) using gradient elution at 0.7 mL/min. The injection volume was 4 μL. The total acquisition time was 4.5 min. Samples were analyzed in selective MRM mode using LC-MS/MS. Peak area ratios for calibration curves and quantification of samples were calculated using Analyst software version 1.6.2. Calibration curves were plotted using the peak area ratios analyte/internal standard versus nominal analyte concentration, using a quadratic weighted 1/x regression.
# [3] = rat, in vivo
# in vivo [4] = details: male, rat, po, 50 mg/kg, plasma Raloxifene
structure (smiles),measurement,setting,value
CCc1c2c(nc3ccc(OC(=O)N4CCC(N5CCCCC5)CC4)cc13)-c1cc3c(c(=O)n1C2)COC(=O)[C@]3(O)CC [Irinotecan],water solubility (in words),[1],good water solubility
N#Cc1ccc(C(c2ccc(C#N)cc2)n2cncn2)cc1 [Letrozole],Cmax,"in vivo [2]; male, SD (Sprague-Dawley), po, 5 mg/kg, Cmax, plasma Letrozole",4240 nM
same,Tmax,"in vivo [2]; male, SD (Sprague-Dawley), po, 5 mg/kg, plasma Letrozole",4.5 h
same,Tmax,"in vivo [2]; male, SD, po, 5 mg/kg, plasma Letrozole",6 h
same,drug toxicity after combination with HA,in vivo [2],no detectable augmentation of the drug toxicity
same,bioavailability after combination with HA,in vivo [2]; po,increased
same,water solubility (in words),[1],very poor water solubility
O=C(c1ccc(OCCN2CCCCC2)cc1)c1c(-c2ccc(O)cc2)sc2cc(O)ccc12 [Raloxifene],drug toxicity after combination with HA,[3],no detectable augmentation of the drug toxicity
same,bioavailability after combination with HA,[3]; po,increased
same,Cmax,"in vivo [4]; SD (Sprague-Dawley), Cmax",190 nM
same,Tmax,in vivo [4]; SD (Sprague-Dawley),4.5 h
same,Tmax,in vivo [4]; SD,3 h
same,water solubility (in words),[1],very poor water solubility
